For 1 molecule, IC50 results are on record in article PMC10525257, “Hop Flower Supercritical Carbon Dioxide Extracts Coupled with Carriers with Solubilizing Properties—Antioxidant Activity and Neuroprotective Potential” (Antioxidants, 2023).

The test concerns the target T1, tyrosinase from mushroom.
T1 construct: gene PPO1
Nature of the test: dopachrome absorbance, […] nm, 96-well plate. The following applies: L-DOPA substrate (2.0 mM stock), phosphate buffer pH 6.8, room temperature. Type of test: biochemical.

Structures are written as SMILES. Values after ≈ are worked out from the molar mass of the structure shown.

Take `O=C(O)CCCCCCCC(=O)O` [azelaic acid]: the IC50 came out at 6455 ± 249 µg/mL (≈ 34.3 mM).
